Patent US11091529B2, “Peptides having reduced toxicity that stimulate cholesterol efflux” (The Regents of the University of California, priority 2014, dated 2021)
Where no end group is shown, it is not given here.

Test system: male, chow-fed C57Bl/6 mice
Assay: Safety and TG elevating effects after IP injection of peptides (plasma CPK, ALT, AST, TG)
Details: 300 mg/kg IP; for muscle toxicity as judged by CPK activity in plasma: compared with ATI-5261
Excerpt: Since the position of positively charged amino acids near the lipid-water interface of class A α-helices is thought to mediate membrane interactions, we tested whether inverting the positions of positive and negative residues within ATI-5261 lessened the toxic response of the peptide at high doses. Panel A—Helical-wheel and net diagrams of ATI-5261 showing the positions of positively charged lysine (K) and arginine (R) at the lipid interface of the amphipathic α-helix (i.e. helical wheel diagrams on left). […] Plasma CPK, ALT, AST and TG (table) were assessed after 4 h. Values and means±SD, n=4.
Panel A—The positions of charged amino acids within the LeuATI-5261 peptide were switched to move the positive lysine and arginine residues away from the lipid-water interface of the amphipathic α-helix. Panel B— Safety and TG elevating effects were evaluated by injecting (IP) peptides (300 mg/kg) into male, chow-fed C57Bl/6 mice. Values are means SD, n=4. […] J774 macrophages were labeled with [3H]cholesterol and treated with (red, right side bars) and without (blue, left side bars) cAMP to modulate ABCA1 expression.
Panel A—Safety and TG elevating effects were evaluated by injecting (IP) peptides (300 mg/kg) into male, chow-fed C57Bl/6 mice. Values are means SD, n=4. […] Panel B-ABCA1-dependent cholesterol efflux activity of peptides determined using J774 macrophages labeled with [3H]cholesterol. Results are expressed as the ABCA1 component of efflux.
Peptides or peptidomeimetics of the invention can be evaluated for toxicity using known assays. […] Safety chemistry panels including plasma alanine aminotransferase (ALT), aspartate amino transferase (AST), and creatine kinase (CK) can then be determined in the blood. […]
Since the position of positively charged amino acids near the lipid-water interface of class A α-helices is thought to mediate membrane interactions, we tested whether inverting the positions of positive and negative residues within ATI-5261 lessened the toxic response of the peptide at high doses. […] Plasma CPK, ALT, AST and TG (table) were assessed after 4 h as described in FIGS. 4-6. […]

| Sequence | muscle toxicity as judged by CPK activity in plasma | cytotoxicity (plasma CPK, ALT, AST) (plasma after 4 h, n=4) |
| --- | --- | --- |
| EVRSKLEEWFAAFREFAEEFLARL [T5766-5] | greatly reduced muscle toxicity |  |
| EVRSKLEEWFAAFREFAEEFLARLNS [T5594-4] | greatly reduced muscle toxicity |  |
| KVESELREWLAALEKLARRLLAELES [T6023-2] |  | no increase in muscle toxicity or elevated plasma enzymes compared to vehicle alone |
